Measurements: ChEMBL document CHEMBL5465560, “Selectivity Literature for EUbOPEN Chemogenomic Library” (2024)

Columns and labels:
[1] = molecular target: Serine/threonine-protein kinase 33 (Homo sapiens) (UniProt Q9BYT3); experiment: Selectivity interaction (KinomeScan (DiscoverX)) EUB0000092b STK33; details: at 10 µM
[2] = molecular target: ALK tyrosine kinase receptor (Homo sapiens, UniProt Q9UM73); experiment: Selectivity interaction (KinomeScan (DiscoverX)) EUB0000092b ALK; details: at 10 µM
[3] = molecular target: G protein-coupled receptor kinase 4 (Homo sapiens) (UniProt P32298); experiment: Selectivity interaction (KinomeScan (DiscoverX)) EUB0001079a GRK4; details: at 1 µM
Misshapen-like kinase 1 = Misshapen-like kinase 1 (Homo sapiens, UniProt Q8N4C8); experiment: Selectivity interaction (KinomeScan (DiscoverX)) EUB0000666a MINK1; details: at 10 µM
[4] = tested on: Epidermal growth factor receptor (Homo sapiens), P00533 [L861Q]; details: at 10 µM
[5] = molecular target: Receptor tyrosine-protein kinase erbB-2 (Homo sapiens, UniProt P04626); details: at 10 µM
[6] = molecular target: T1, Mitogen-activated protein kinase kinase kinase kinase 3 (Homo sapiens) (UniProt Q8IVH8); experiment: Selectivity interaction (LanthaScreen Eu Kinase Binding Assay) EUB0001632a MAP4K3; details: at 10 µM
T1 sequence (whole entry): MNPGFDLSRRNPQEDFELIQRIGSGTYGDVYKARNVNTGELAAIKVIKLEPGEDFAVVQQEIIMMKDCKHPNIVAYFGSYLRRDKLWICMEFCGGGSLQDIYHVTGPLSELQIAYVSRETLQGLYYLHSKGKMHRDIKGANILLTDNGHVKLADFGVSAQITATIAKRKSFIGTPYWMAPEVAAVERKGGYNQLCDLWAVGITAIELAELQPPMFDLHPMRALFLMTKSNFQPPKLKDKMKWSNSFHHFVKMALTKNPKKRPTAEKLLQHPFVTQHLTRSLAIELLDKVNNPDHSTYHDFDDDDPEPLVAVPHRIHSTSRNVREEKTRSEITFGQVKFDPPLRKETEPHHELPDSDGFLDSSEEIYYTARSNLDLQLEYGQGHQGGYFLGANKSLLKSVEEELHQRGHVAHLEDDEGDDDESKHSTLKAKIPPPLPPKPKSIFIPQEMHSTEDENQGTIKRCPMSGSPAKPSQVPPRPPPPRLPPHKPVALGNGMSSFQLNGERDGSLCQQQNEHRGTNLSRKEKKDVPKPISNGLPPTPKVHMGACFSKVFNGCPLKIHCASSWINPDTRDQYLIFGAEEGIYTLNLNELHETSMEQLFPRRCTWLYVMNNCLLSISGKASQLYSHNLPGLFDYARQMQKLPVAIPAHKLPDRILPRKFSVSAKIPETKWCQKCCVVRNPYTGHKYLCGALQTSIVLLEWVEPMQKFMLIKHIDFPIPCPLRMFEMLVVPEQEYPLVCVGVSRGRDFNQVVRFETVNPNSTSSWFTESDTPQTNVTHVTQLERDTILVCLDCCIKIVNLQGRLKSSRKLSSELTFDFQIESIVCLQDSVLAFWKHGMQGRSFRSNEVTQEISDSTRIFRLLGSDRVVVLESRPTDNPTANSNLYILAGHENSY

[7] = molecular target: T2, Cyclin-dependent kinase 11A (Homo sapiens) (UniProt Q9UQ88); experiment: Selectivity interaction (ActivX KiNativ screen (kinase selectivity in THP-1 cell lysates)) EUB0000639a CDK11A; type: subcellular; details: lysate, at 1 µM
T2 sequence (whole entry): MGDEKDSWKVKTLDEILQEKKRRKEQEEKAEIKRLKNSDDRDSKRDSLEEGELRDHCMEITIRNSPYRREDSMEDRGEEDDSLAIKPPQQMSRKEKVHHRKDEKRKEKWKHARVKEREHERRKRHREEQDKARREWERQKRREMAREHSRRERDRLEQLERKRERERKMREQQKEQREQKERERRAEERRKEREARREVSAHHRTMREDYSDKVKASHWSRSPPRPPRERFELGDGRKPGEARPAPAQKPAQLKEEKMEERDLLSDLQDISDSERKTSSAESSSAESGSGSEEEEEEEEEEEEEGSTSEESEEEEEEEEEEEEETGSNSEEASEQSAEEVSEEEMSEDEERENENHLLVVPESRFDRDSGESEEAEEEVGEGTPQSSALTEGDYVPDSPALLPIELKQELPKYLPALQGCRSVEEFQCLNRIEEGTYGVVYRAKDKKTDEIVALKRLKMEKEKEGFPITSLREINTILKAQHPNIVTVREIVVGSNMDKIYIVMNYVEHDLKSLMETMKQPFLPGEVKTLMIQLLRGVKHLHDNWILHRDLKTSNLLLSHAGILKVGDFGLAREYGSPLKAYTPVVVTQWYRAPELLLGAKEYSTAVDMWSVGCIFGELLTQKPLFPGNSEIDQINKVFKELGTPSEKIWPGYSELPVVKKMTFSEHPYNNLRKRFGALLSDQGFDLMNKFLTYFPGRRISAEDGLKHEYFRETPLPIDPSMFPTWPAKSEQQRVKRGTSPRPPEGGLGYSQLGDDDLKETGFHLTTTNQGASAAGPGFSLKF

[8] = molecular target: Mitogen-activated protein kinase 14 (Homo sapiens, UniProt Q16539); experiment: Selectivity interaction (ActivX KiNativ screen (kinase selectivity in THP-1 cell lysates)) EUB0000639a MAPK14; type: subcellular; details: lysate, at 0.2 µM
[9] = molecular target: Serine/threonine-protein kinase VRK2 (Homo sapiens) (UniProt Q86Y07); experiment: Selectivity interaction (KinomeScan (DiscoverX)) EUB0000045b VRK2
Sequence of Serine/threonine-protein kinase VRK2 (Homo sapiens) (Q86Y07 whole entry): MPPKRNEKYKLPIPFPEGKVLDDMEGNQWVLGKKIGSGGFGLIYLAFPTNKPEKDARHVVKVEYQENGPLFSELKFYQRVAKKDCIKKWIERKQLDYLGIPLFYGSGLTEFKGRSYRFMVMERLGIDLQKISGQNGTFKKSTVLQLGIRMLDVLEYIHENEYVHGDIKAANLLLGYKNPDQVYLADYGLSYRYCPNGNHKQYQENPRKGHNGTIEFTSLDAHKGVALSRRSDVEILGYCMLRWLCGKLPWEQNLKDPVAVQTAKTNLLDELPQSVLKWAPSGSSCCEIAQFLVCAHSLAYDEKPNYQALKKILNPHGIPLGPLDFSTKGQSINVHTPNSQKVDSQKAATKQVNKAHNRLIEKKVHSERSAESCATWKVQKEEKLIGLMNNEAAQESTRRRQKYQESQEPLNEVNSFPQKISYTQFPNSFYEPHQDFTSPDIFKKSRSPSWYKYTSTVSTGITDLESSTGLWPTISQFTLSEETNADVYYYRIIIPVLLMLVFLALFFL

Sequence of Epidermal growth factor receptor (Homo sapiens), P00533 [L861Q] (P00533 whole entry L861Q): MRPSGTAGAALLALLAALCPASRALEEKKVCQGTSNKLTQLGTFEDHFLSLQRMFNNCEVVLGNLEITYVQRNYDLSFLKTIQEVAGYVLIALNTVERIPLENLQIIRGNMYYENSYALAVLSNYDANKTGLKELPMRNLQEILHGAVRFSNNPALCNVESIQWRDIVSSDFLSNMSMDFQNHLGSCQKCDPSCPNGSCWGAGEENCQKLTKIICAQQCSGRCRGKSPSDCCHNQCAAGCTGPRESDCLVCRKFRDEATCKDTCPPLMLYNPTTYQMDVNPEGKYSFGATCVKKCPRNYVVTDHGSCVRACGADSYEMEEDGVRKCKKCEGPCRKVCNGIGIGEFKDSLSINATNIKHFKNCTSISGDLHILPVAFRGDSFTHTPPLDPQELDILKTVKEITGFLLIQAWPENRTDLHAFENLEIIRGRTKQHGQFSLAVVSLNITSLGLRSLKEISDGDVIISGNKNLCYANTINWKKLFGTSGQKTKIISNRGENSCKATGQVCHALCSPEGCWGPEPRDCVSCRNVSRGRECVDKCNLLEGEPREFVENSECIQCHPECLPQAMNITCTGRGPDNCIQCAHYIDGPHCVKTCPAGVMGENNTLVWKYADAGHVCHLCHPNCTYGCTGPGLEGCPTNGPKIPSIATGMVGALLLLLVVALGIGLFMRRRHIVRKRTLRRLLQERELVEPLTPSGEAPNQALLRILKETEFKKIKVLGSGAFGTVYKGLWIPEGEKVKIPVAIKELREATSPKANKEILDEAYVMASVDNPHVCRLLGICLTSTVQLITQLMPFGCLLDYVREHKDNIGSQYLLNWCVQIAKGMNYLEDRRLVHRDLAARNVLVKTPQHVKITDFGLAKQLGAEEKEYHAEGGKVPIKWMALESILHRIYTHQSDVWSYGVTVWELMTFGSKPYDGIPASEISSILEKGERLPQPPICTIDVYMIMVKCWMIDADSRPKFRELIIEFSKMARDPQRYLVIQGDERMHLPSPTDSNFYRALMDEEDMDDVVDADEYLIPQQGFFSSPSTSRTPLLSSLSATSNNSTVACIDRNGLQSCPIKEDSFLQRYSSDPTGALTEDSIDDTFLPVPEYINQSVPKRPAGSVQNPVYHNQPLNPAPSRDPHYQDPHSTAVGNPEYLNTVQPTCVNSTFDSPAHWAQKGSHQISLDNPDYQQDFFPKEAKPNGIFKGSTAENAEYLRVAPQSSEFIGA
Sequence of Mitogen-activated protein kinase 14 (Q16539 whole entry): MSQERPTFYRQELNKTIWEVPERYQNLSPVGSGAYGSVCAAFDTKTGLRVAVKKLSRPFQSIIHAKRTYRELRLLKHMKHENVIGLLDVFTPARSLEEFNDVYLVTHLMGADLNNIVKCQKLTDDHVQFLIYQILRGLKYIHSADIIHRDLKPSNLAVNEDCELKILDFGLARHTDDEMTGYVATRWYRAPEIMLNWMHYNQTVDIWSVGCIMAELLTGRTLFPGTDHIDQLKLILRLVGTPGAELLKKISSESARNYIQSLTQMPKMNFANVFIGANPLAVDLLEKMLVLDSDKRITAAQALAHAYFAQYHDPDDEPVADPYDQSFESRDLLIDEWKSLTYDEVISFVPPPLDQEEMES
Sequence of Serine/threonine-protein kinase 33 (Homo sapiens) (Q9BYT3 whole entry, looked up): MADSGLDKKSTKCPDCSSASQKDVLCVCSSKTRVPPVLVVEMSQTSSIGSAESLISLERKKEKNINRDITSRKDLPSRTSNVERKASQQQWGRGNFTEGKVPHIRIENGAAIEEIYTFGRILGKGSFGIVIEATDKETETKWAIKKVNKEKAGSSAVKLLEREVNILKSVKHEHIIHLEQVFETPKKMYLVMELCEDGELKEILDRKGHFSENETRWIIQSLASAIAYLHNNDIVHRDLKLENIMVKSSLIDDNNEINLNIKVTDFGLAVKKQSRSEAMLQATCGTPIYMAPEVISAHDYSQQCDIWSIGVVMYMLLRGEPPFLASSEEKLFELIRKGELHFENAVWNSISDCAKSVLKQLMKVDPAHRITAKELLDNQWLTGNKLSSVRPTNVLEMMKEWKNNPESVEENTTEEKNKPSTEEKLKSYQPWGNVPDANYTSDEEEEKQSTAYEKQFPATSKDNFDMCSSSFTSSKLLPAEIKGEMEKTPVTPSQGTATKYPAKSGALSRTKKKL
Sequence of G protein-coupled receptor kinase 4 (Homo sapiens) (P32298 whole entry, looked up): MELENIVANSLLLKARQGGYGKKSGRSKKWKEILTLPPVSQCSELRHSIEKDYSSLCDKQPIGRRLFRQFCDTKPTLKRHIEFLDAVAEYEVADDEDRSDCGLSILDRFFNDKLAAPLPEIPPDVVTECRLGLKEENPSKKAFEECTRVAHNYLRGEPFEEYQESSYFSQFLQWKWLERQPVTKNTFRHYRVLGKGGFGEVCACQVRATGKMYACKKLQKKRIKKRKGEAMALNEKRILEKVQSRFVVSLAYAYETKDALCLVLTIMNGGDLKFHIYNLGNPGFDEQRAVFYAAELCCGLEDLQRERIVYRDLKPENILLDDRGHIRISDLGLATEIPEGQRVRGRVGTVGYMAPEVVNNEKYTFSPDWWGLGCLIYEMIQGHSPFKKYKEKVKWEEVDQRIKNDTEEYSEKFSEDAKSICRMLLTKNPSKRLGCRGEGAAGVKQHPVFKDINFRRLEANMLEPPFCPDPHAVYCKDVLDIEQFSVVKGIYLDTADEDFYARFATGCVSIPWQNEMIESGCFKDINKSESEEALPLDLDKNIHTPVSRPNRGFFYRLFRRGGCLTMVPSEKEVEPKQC
Sequence of Receptor tyrosine-protein kinase erbB-2 (P04626 whole entry): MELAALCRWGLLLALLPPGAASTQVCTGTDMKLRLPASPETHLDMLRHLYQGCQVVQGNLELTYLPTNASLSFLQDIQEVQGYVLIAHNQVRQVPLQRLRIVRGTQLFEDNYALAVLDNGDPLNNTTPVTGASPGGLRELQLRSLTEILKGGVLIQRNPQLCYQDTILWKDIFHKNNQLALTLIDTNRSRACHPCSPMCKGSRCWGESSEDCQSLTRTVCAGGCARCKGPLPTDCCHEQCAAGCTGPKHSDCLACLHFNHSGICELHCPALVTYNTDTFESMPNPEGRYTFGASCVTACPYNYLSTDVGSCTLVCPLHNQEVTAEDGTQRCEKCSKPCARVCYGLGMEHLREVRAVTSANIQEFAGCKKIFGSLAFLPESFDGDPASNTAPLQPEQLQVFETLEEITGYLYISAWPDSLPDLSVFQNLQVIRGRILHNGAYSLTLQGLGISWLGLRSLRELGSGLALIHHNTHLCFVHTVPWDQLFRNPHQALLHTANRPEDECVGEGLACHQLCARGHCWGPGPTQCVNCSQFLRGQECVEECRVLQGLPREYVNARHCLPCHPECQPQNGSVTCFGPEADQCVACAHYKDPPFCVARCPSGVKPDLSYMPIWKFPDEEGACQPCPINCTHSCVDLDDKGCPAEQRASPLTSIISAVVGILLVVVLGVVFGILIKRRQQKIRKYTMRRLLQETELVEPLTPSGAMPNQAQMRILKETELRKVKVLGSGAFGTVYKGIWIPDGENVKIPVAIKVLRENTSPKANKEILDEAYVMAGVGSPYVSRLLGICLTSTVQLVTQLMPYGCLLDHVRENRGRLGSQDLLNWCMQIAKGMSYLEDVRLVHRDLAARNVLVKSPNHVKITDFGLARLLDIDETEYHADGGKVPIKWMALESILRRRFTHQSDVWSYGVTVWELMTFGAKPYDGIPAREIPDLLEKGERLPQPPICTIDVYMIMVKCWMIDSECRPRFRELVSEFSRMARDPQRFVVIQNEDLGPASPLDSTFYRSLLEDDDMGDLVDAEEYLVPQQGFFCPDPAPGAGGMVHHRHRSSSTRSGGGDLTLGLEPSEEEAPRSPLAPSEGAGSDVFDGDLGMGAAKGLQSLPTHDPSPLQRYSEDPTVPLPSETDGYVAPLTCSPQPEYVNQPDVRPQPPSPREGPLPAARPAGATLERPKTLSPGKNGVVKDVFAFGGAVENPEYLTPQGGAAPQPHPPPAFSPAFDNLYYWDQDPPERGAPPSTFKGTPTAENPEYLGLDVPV

`CCC(=O)N1CCN(c2ccc(-n3c(=O)ccc4cnc5ccc(-c6cnc7ccccc7c6)cc5c43)cc2C(F)(F)F)CC1` gave a % of control [1] of 90% and a % of control [2] of 80%.
Work on `Nc1cnc(N2CCc3cc(S(=O)(=O)Nc4c(F)cc(Cl)cc4F)cc(N4CCCC4=O)c32)nc1` [TP-020n] yielded a % of control [3] of 100%.
For `O=C(NOC[C@H](O)CO)c1ccc(F)c(F)c1Nc1ccc(I)cc1F`, the % of control (Misshapen-like kinase 1) was 94%.
In the case of `Cc1cc([C@@H](C)Nc2ccccc2C(=O)O)c2nc(N3CCOCC3)cc(=O)n2c1` [AZD-6482], the % of control [4] is reported as 100% and the % of control [5] is reported as 100%.
With `Cn1cc(-n2cnc3c(NCc4nc5cc(Cl)c(Cl)cc5[nH]4)nc(N4CCOCC4)nc32)cn1` the % of inhibition [6] was -14.8%.
Compound `CC[C@@H]1[C@H](F)C(=O)N[C@@H]1COc1nccc2cc(C(N)=O)c(OC)cc12` [ZIMLOVISERTIB] has a % of inhibition [7] of 6.7% and a % of inhibition [8] of -1.8%.
Compound `C=CC(=O)Nc1cc(-n2c(=O)ccc3cnc4ccc(-c5ccc(NS(C)(=O)=O)cc5)cc4c32)ccc1C` has a % of control ([9]; at 1 µM) of 100% and a % of control ([9]; at 10 µM) of 86%.
